Measured values taken from the NIST ThermoML archive (doi:10.1021/je060271a).

Conditions: 343.14 K, Liquid, Vibrating tube method

CCCC(=O)OCC(COC(=O)CCC)(COC(=O)CCC)COC(=O)CCC [pentaerythritol tetrabutyrate]
Conditions	mass density [kg/m3]
5789.8 kPa	1012.7
5820.2 kPa	1012.7
5848.2 kPa	1012.7
5882.8 kPa	1012.5
5917.3 kPa	1012.8
5983 kPa	1012.8
6117.5 kPa	1013
6146.4 kPa	1012.8
6179.9 kPa	1012.9
6208.2 kPa	1012.9
6243.3 kPa	1013
6271.8 kPa	1012.9
6306.4 kPa	1012.9
6341.3 kPa	1013
6370.3 kPa	1013.1
6406.6 kPa	1013
6437.2 kPa	1013.1
6473.6 kPa	1013.1
6511 kPa	1013.2
6542.8 kPa	1013.3
6581.3 kPa	1013.2
6611.2 kPa	1013.2
6645.7 kPa	1013.4
6673.9 kPa	1013.3
6707.9 kPa	1013.3
6736.2 kPa	1013.4
6771.5 kPa	1013.3
6800.7 kPa	1013.3
6836.3 kPa	1013.4
6866 kPa	1013.4
6902.9 kPa	1013.4
6934 kPa	1013.6
6971 kPa	1013.5
7008.4 kPa	1013.5
7168 kPa	1013.6
7200.4 kPa	1013.7
7227.9 kPa	1013.7
7261.2 kPa	1013.7
7289.3 kPa	1013.8
7323.9 kPa	1013.9
7352.7 kPa	1013.8
7387.4 kPa	1014
7416.1 kPa	1013.9
7450.6 kPa	1013.8
7480.1 kPa	1014
7515.7 kPa	1014
7551.4 kPa	1013.9
7581.6 kPa	1013.9
7618.5 kPa	1014
7649.6 kPa	1014
7686.9 kPa	1014
7718.3 kPa	1014.2
7756.1 kPa	1014.1
7788.3 kPa	1014.2
7827 kPa	1014.2
7866.3 kPa	1014.2
7899.3 kPa	1014.2
7932.8 kPa	1014.4
7972.8 kPa	1014.4
8013.9 kPa	1014.3
8090.3 kPa	1014.4
8125.6 kPa	1014.5
8169.1 kPa	1014.4
8205.4 kPa	1014.5
8246 kPa	1014.4
8283.5 kPa	1014.5
8312 kPa	1014.5
8346.8 kPa	1014.6
8382.7 kPa	1014.7
8723.4 kPa	1014.9
8760.5 kPa	1014.7
8798.7 kPa	1014.8
8838.7 kPa	1014.9
8871 kPa	1015
8910.3 kPa	1015.2
8943.4 kPa	1015
9220.4 kPa	1015.3
9262.8 kPa	1015.3
9305.7 kPa	1015.3
9342.7 kPa	1015.3
9387.2 kPa	1015.4
9430.1 kPa	1015.4
9462.8 kPa	1015.5
9499 kPa	1015.3
9535.2 kPa	1015.5
9572.1 kPa	1015.6
9751.4 kPa	1015.7
9783.6 kPa	1015.7
10212 kPa	1016
10254 kPa	1016.1
10297 kPa	1016.1
10334 kPa	1015.9
10376 kPa	1016
10420 kPa	1016.1
10456 kPa	1016.3
10500 kPa	1016.3
10816 kPa	1016.5
10866 kPa	1016.5
10904 kPa	1016.5
11274 kPa	1016.8
11884 kPa	1017.2
11921 kPa	1017.2
11965 kPa	1017.2
12003 kPa	1017.3
12047 kPa	1017.3
12093 kPa	1017.5
12139 kPa	1017.3
12178 kPa	1017.4
12224 kPa	1017.5
12271 kPa	1017.5
12318 kPa	1017.5
14882 kPa	1019.5
14925 kPa	1019.6
14968 kPa	1019.5
15004 kPa	1019.4
15048 kPa	1019.5
15500 kPa	1019.8
15576 kPa	1019.8
17833 kPa	1021.6
19181 kPa	1022.6
19261 kPa	1022.5
22923 kPa	1025
23811 kPa	1025.7
23859 kPa	1025.7
23900 kPa	1025.7
23948 kPa	1025.8
23996 kPa	1025.8
24046 kPa	1025.8
25712 kPa	1027
25761 kPa	1026.9
25802 kPa	1027
25851 kPa	1027.1
25900 kPa	1027.1
25940 kPa	1027.1
25989 kPa	1027.1
26037 kPa	1027.1
26087 kPa	1027.3
26128 kPa	1027.2
26178 kPa	1027.4
26627 kPa	1027.5
26673 kPa	1027.6
26708 kPa	1027.6
26751 kPa	1027.6
26793 kPa	1027.7
26835 kPa	1027.8
26872 kPa	1027.7
26914 kPa	1027.8
